From patent US7417175B2, “Interstitial prostatism model animal” (Taiho Pharmaceuticals Co., Ltd., priority 2001, dated 2008) come the findings set out here.

For assay [1], the system named is subcutaneously-implanted, rat fetal urogenital sinus-derived tissues. The experiment in a line: Inhibition of weight increase of rat fetal urogenital sinus-derived tissue implanted subcutaneously in nude mice (prostatic stromal hyperplasia model). In kind it is in vivo, male nude mice (BALB/cA Jcl-nu). The settings on record: for Rate of inhibition (%) to weight increase of implanted tissue: tissue weighed day 14, vs solvent group. From the text:
Under ether anesthesia, fetuses were removed from female SD rats that were 21 days pregnant. From the removed male fetuses, urogenital sinuses were removed also under ether anesthesia while observing through a stereoscopic microscope. The urogenital sinuses were stored in a sterilized culture medium until implantation. The abdominal skin adjacent the left femoral region of 6-week old BALB/c male nude mice was cut open about 2 to 3 mm under ether anesthesia. A single rat fetal urogenital sinus obtained in (1) above was subcutaneously implanted after incision using a forceps and the incision was sutured. Thereafter, these nude mice were reared in clean racks (Rat Bracket Cages, 3 to 4 mice/cage) for 2 weeks under the following conditions: • Temperature: 20 to 26° C. • Humidity: 30 to 70% • Lighting hours: 12-hour light-dark cycle; light-on at 8 am and light-out at 8 pm • Feed and feeding method: solid feed for mouse, MF (irradiated), ad libitum • Water and watering method: tap water, ad libitum (3) Weighing of Implanted Tissue (Rat Fetal Urogenital Sinus-derived Tissue) Animal models for prostatic stromal hyperplasia of the invention were prepared according to the methods described in Example 1 (1) and (2) by implanting the urogenital sinuses of rat fetuses (21 day-old) beneath the abdominal skin of 6-week-old male nude mice (BALB/cA Jcl-nu). For 2 weeks from the implantation day (day 0), a known therapeutic agent for benign prostatic hyperplasia, i.e., chlormadinone acetate (anti-androgen agent: 6-chloro-3,20-dioxopregna-4,6-dien-17,alpha-yl acetate; suspended or dissolved in 0.5% hydroxypropylmethyl cellulose (0.5% HPMC) solvent) was forcedly administered orally once a day (3 test substance-administered groups: 30 mg/kg·day, 100 mg/kg·day, 300 mg/kg·day; n=10 mice/group). Two weeks after the beginning of administration (day 14), the model animals were sacrificed by over anesthesia, and the implanted tissues (rat fetal urogenital sinus-derived tissues) were removed and weighed (weights from the test substance-administered groups). As a control experiment, for 2 weeks after implantation, model animals (solvent-administered group: n=10 mice) were forcedly administered with a solvent (0.5% HPMC), no chlormadinone acetate dissolved therein, once a day orally. […] The inhibition rate to weight increase of the subcutaneously-implanted, rat fetal urogenital sinus-derived tissues was calculated according to the formula shown in Equation 1, with respect to each chlormadinone acetate-administered group, and the effects of the therapeutic agent for benign prostatic hyperplasia (chlormadinone acetate) upon these tissues were then evaluated. […]

Assay [2] deals with rat fetal urogenital sinus-derived tissues implanted beneath the prostatic capsules. Put plainly: Inhibition of weight increase of rat fetal urogenital sinus-derived tissue implanted beneath the prostatic capsule of rats (prostatic stromal hyperplasia model). It is filed as in vivo, male SD rats. From the text:
Under ether anesthesia, fetuses were removed from female SD rats that were 20 days pregnant. From the removed fetuses, the urogenital sinuses were removed under ether anesthesia while observing through a stereoscopic microscope. The urogenital sinuses were stored in a sterilized culture medium until implantation. The prostate glands were exposed by midline incision using 6-week old male SD rats under ether anesthesia. The capsule of prostate right ventral lobe was slightly cut open while observing through a stereoscopic microscope. Two of the fetal urogenital sinuses obtained in (1) above were implanted using a forceps beneath the capsule, and the incision in the capsule was sutured. The cut abdominal skin then closed and the rats were reared for 2 to 8 weeks in normal rearing cages (Rat Bracket Cages, 3 to 4 rats/cage) under the following conditions: • Temperature: 20 to 26° C. • Humidity: 30 to 70% • Lighting hours: 12-hour light-dark cycle; light-on at 8 am and light-out at 8 pm • Feed and feeding method: solid feed for mouse, MF (irradiated), ad libitum • Water and watering method: tap water, ad libitum (3) Weighing of Implanted Tissue (Rat Fetal Urogenital Sinus-derived Tissue) Animal models for prostatic stromal hyperplasia of the present invention were prepared according to the methods described in Examples 2 (1) and (2) by implanting the urogenital sinuses of rat fetuses (20 days of intrauterine life) beneath the capsules of prostate ventral lobes of 6-week-old male SD rats. […] The rate inhibition to weight increase of the rat fetal urogenital sinus-derived tissues implanted beneath the prostatic capsules was calculated according to the formula shown in Equation 1 above, and the effects of the therapeutic agent on benign prostatic hyperplasia (chlormadinone acetate) were then evaluated. • Experiment (2): Animal models for prostatic stromal hyperplasia prepared as above were reared under the conditions described in Example 2 (2) for 3 weeks (until day 21) from the implantation day (day 0). […]

As to `CC(=O)O[C@]1(C(C)=O)CC[C@H]2[C@@H]3C=C(Cl)C4=CC(=O)CC[C@]4(C)[C@H]3CC[C@@]21C` [chlormadinone acetate, 6-chloro-3,20-dioxopregna-4,6-dien-17,alpha-yl acetate], the “Rate of inhibition (%) to weight increase of implanted tissue” value in assay [1] (30 mg/kg·day orally once a day for 2 weeks from implantation day) came out at 21.8%; in assay [1] (100 mg/kg·day orally once a day for 2 weeks from implantation day), 39.5%; in assay [1] (300 mg/kg·day orally once a day for 2 weeks from implantation day), 38.8%; in assay [2] (Experiment (1): 10 mg/kg·day orally for 3 weeks from implantation date, tissue weighed day 21), 30.7%; in assay [2] (Experiment (2): 10 mg/kg·day orally for 3 weeks from 3 weeks after implantation (day 21 to day 42), tissue weighed day 42), 67.0%. The “Effect on tissue weight increase (in words)” value in assay [1] (oral, 2 weeks of rearing after implantation, subcutaneous implant in nude mice) is “significantly inhibits the tissues weight increase”; in assay [2] (Experiments (1) and (2), 10 mg/kg·day oral, implant beneath prostatic capsule of rats) it was “significantly inhibits the tissue weight increase”.
